Experimental data published in patent US20080275014A1, “Clobetasol Propionate Shampoos for the Treatment of Seborrheic Dermatitis of the Scalp” (Galderma S.A., priority 2004, published 2008).

Assay: Clobetasol plasma levels
Type: in vivo, human
Settings: 45 subject plasma samples; after topical scalp treatment
Description: This study was conducted as a single center, randomized, investigator-masked and competitor comparison of 4 parallel groups involving Psoriasis and Scalp seborrheic dermatitis subjects. The aim of the trial was to evaluate the opthalmological irritation potential and the potential to suppress the HPA axis of Clobetasol Propionate Shampoo, 0.05%. During 4 weeks, psoriasis subjects had to treat their scalp once a day with Clobetasol Shampoo, 0.05% or with Dermoval/Temovate gel. Scalp seborrheic dermatitis subjects had to treat their scalp twice a week with Clobetasol Shampoo, 0.05% or on a day with Dermoval/Temovate gel.
Each subjects was submitted at each visit (each week during 4 weeks) to the following tests, ocular examination, HPA-axis function, local and general safety. First, opthalmological examination, measurement of intraocular pressure, detection of ocular subjective symptoms such as burning sensation, measurement of far and near visual acuity. Second, they were sampled for serum cortisol levels and were submitted to the Cosyntropin (Synacthene) stimulation assay. Cutaneous safety (skin atrophy using B-Scan ultra-sound and telangiectasis) and adverse events were also recorded. Systemic safety was also assessed by routine laboratory test and detection of Clobetasol Plasma levels, cutaneous safety, and DSS at the end of the study.

CCC(=O)O[C@]1(C(=O)CCl)[C@@H](C)C[C@H]2[C@@H]3CCC4=CC(=O)C=C[C@]4(C)[C@@]3(F)[C@@H](O)C[C@@]21C [Clobatasol 17-propionate, clobetasol 17-propionate]
amounts found in subject plasma samples: No detectable amounts
